In ChEMBL document CHEMBL1125453, “Side chain modified 5-deazafolate and 5-deazatetrahydrofolate analogues as mammalian folylpolyglutamate synthetase and glycinamide ribonucleotide formyltransferase inhibitors: synthesis and in vitro biological evaluation” (J Med Chem, 1992):

Tests used:
[1] = biological target: T1, Folylpolyglutamate synthase, mitochondrial (Mus musculus, UniProt P48760); assay: In vitro inhibition of mouse liver Folyl-polyglutamate synthase
T1 sequence (P48760 whole entry): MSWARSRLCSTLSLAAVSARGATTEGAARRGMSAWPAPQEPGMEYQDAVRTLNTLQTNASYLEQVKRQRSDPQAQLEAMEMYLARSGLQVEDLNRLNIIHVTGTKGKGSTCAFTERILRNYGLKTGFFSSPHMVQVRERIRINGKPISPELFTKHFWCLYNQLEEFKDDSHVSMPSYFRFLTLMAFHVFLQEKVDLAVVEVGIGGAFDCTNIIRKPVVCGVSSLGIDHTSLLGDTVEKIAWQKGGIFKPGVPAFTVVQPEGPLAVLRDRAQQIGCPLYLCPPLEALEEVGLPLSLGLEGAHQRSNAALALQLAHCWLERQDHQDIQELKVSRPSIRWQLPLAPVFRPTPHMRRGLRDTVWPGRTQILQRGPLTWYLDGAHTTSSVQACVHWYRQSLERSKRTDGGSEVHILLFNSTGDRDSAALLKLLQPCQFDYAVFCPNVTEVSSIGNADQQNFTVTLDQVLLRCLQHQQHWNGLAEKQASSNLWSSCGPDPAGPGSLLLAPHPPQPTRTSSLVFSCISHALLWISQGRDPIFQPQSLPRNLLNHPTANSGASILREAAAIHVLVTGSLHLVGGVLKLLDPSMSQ

[2] = biological target: Thymidylate synthase (Homo sapiens, UniProt P04818); assay: In vitro inhibition of human thymidylate synthase (TS)
[3] = biological target: T2, Dihydrofolate reductase (Homo sapiens, UniProt P00374); assay: In vitro inhibition of human dihydrofolate reductase (DHFR)
T2 sequence (P00374 whole entry): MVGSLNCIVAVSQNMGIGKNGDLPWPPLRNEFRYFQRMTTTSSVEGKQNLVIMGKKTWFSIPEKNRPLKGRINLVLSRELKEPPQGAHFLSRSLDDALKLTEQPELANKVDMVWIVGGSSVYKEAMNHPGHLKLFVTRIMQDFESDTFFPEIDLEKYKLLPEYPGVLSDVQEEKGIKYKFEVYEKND

[4] = biological target: T3, Trifunctional purine biosynthetic protein adenosine-3 (Mus musculus, UniProt Q64737); assay: In vitro inhibition of Glycinamide ribonucleotide formyltransferase from L1210 murine leukemia cells
T3 sequence (Q64737 whole entry): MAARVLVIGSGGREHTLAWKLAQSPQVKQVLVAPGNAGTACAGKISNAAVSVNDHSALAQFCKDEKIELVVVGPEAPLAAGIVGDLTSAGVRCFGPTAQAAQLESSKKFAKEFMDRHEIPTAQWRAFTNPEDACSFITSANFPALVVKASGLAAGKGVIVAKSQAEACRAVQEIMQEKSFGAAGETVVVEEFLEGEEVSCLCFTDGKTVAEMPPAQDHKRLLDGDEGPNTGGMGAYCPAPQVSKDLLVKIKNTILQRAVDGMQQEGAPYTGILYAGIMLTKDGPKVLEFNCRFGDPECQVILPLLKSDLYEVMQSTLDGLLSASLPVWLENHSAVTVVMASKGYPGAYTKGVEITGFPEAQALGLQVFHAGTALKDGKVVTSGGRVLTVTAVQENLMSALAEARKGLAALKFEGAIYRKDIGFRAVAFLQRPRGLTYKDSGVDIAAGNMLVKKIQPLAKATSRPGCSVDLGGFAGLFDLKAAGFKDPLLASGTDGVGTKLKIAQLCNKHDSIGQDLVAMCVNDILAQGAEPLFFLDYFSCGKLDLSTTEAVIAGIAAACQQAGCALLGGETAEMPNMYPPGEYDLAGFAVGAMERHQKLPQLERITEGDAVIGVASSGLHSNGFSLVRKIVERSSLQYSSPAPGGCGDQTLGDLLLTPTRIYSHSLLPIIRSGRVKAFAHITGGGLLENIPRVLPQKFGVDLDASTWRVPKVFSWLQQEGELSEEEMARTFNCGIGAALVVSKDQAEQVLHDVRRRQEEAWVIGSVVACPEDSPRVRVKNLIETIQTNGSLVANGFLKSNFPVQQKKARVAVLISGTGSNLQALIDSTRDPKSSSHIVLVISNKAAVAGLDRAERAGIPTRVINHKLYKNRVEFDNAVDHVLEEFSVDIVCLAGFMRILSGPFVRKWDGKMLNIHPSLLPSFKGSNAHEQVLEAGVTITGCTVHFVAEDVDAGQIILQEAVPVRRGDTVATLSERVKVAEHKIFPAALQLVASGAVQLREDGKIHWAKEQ

[5] = biological target: T3, Trifunctional purine biosynthetic protein adenosine-3; assay: In vitro inhibition of mouse GAR transformylase

Sequence of Thymidylate synthase (P04818 whole entry): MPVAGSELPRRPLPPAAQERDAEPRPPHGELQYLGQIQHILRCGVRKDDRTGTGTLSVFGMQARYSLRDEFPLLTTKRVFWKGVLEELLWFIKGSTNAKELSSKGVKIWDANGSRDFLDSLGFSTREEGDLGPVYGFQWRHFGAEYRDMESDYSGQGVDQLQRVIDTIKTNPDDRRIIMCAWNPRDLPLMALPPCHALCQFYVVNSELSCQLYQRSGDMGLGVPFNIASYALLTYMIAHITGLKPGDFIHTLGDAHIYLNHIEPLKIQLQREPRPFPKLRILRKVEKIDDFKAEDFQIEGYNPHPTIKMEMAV

SMILES	Ki [1]	IC50 [2]	IC50 [3]	Ki [4]	Ki [5]
CCOP(=O)(O)CCC(NC(=O)c1ccc(NCC2CNc3nc(N)nc(O)c3C2)cc1)C(=O)O (configuration not stated)	115 µM	> 5000 µM	950 µM		
CCOP(=O)(O)CCC(NC(=O)c1ccc(NCc2cnc3nc(N)[nH]c(=O)c3c2)cc1)C(=O)O (configuration not stated)	2000 µM	100 µM	1.3 µM		
Nc1nc2ncc(CNc3ccc(C(=O)NC(CCS(=O)(=O)O)C(=O)O)cc3)cc2c(=O)[nH]1 (configuration not stated)	570 µM	55 µM	0.4 µM		
Nc1nc(O)c2c(n1)NCC(CNc1ccc(C(=O)NC(CCS(=O)(=O)O)C(=O)O)cc1)C2 (configuration not stated)	22 µM	2100 µM	12 µM	0.19 µM	
Nc1nc(O)c2c(n1)CCC(CNc1ccc(C(=O)NC(CCC(=O)O)C(=O)O)cc1)C2 (configuration not stated)					0.065 µM
Nc1nc2ncc(CNc3ccc(C(=O)NC(CCP(=O)(O)O)C(=O)O)cc3)cc2c(=O)[nH]1 (configuration not stated)	9 µM	300 µM	4.7 µM		
Nc1nc(O)c2c(n1)NCC(CNc1ccc(C(=O)NC(CCP(=O)(O)O)C(=O)O)cc1)C2 (configuration not stated)	3.2 µM	4200 µM	220 µM	0.047 µM	
CCCN(Cc1ccc2nc(N)nc(O)c2c1)c1ccc(C(=O)NC(CCC(=O)O)C(=O)O)cc1 (configuration not stated)		0.068 µM			
